Results as given in PMC3368197, “Noncytotoxic and Antitumour-Promoting Activities of Garcinia Acid Esters from Garcinia atroviridis Griff. ex T. Anders (Guttiferae)” (Evidence-based Complementary and Alternative Medicine : eCAM, 2012).
Where two headings read alike, the source gives them in different places.

Assays:
[1] = tested on: Brine shrimp (Artemia saline Leach); assay: Brine shrimp lethality/toxicity assay; format: in vivo; conditions: brine shrimp nauplii, preliminary test concentration 300 μM
Description: Brine shrimp (Artemia saline Leach) eggs (Gold Eagle, USA) were placed in a hatching tank containing sea water for 48 h. Each compound (6 μmol) was dissolved in 0.2 mL methylene chloride:methanol (1 : 1) to prepare a stock solution of 30 mM. From the stock solutions, 50 μL was transferred to different vials and allowed to evaporate. After evaporation, 5 mL of brine was added to each vial in triplicate to prepare a preliminary test concentration corresponding to 300 μM. Ten shrimp nauplii were added to each vial (30 shrimps per concentration). The number of survivors out of 30 shrimps per concentration was recorded.

[2] = tested on: Epstein-Barr virus early antigen (EBV-EA) activation; assay: In vitro antitumour-promoting assay: inhibition of EBV early antigen activation in Raji cells; format: cell-based; conditions: for IC50: human gammaherpesvirus 4, Raji cells, 3 mM sodium n-butyrate + 50 nM PMA, 48 h
Description: The inhibition of Epstein-Barr virus (EBV) activation was used to evaluate in vitro antitumour-promoting activity. Raji cells were incubated for 48 h at 37°C under 5% CO2 in 1 mL (~5 × 10^5 cells) of RPMI-1640 medium containing 3 mM sodium n-butyrate ([…] Tesque, Japan), 50 nM phorbol 12-myristate 13-acetate (PMA) (Sigma, USA) and the test compounds (600 μM) per well of a 24-well plate. Conventional indirect immunofluorescence staining of early antigen (EA) with high-titre EA-positive serum (EA titre 1 : 1,280) obtained from nasopharyngeal carcinoma (NPC) patients (1 : 20 serum dilution) followed by a 1 : 30 dilution of fluorescein-isothiocyanate-(FITC-)labeled IgG (Sigma, USA) was used to measure EBV activation. The ratio of EA-induced cells to the control experiments only with sodium n-butyrate and PMA was around 50%. The test compounds showing antitumour-promoting activity were serially diluted (2-fold) to determine the IC50 values.

[3] = tested on: CEM-SS (human T-lymphoblastic leukemia) cells; assay: MTT cytotoxicity assay; format: cell-based; conditions: 72 h
Description: The CEM-SS (human T-lymphoblastic leukemia) cell line was obtained from the National Cancer Institute, USA, and the Raji (human B-lymphoblastoid) cell line was provided by Prof. K. Koshimizu, Kinki University, Japan. Cells were cultured in RPMI-1640 (Sigma, USA) medium with 10% v/v foetal calf serum (Sera Lab, UK), 100 IU/mL penicillin (Sigma, USA) and 100 μg/mL streptomycin (Sigma, USA) as a complete growth medium (CGM). Cells were maintained in 25 cm^2 flask with 10 mL of CGM at 37°C with 5% CO2. Every three days the cells were subcultured by splitting the culture with fresh CGM at a ratio of 1 : 4 [10].
Cytotoxicity was determined using the MTT assay as reported by Ali et al.. Varying concentrations of the test compounds were prepared from the stock solutions by serial dilution in RPMI-1640 to give a volume of 100 μL in each well of a microtiter plate (96-well) as described before. Each well was filled with 100 μl of CEM-SS cell suspension in CGM at 1-2 × 10^5 cells/mL. Controls that contained only CEM-SS cells were included for each sample. The assay for each concentration of extract was performed in triplicate and the culture plates were kept at 37°C with 5% (v/v) CO2 for three days. After 72 h of incubation, 100 μL of medium was removed from each well. […] Absorbance values at 550 nm were measured with a microplate reader (Bio Tek EL 340, USA) after background subtraction at 630 nm. […]

[4] = DPPH radical scavenging method; conditions: 0.3 mM, 30 min
Description: The methanol solution of 2,2-diphenyl-1-picrylhydrazyl hydrate (DPPH) (Aldrich Chem. Co., USA) radicals (1 mL, 0.3 mM) was added to each sample (1 mM, 0.5 mL) and was shaken vigorously. The absorbance of each sample was measured at 517 nm after allowing it to stand for 30 min. Each sample (final concentration, 0.3 mM) was assayed in triplicate and averaged. Standard antioxidants, that is, butylated hydroxytoluene (BHT) and ascorbic acid, were used as positive controls.

[5] = tested on: Epstein-Barr virus early antigen (EBV-EA) activation; design: method as in PMID 9247600, PMID 22140296; conditions: known antitumour promoter; read-out: IC50, inhibition of EBV activation; cited from earlier work

Structure (SMILES) | LC50 [1] [µM] | IC50 [2] [µM] | fold higher antitumour-promoting activity than compound 2 ([2]; ratio of EBV-EA IC50 values) [fold] | CD50 [3] [µM] | Radical scavenging (%), DPPH assay [4] [%] | IC50 [5] [µM]
CCCCOC(=O)CC1(O)C(=O)OC1C(=O)OCCCC (stereo not shown) [Compound 1, 2-(butoxycarbonylmethyl)-3-butoxycarbonyl-2-hydroxy-3-propanolide] | > 300 | 70 | 8 | > 100 | 3.4 | 
CCCCOC(=O)CC(O)(C(=O)OC)C(O)C(=O)OCCCC (stereo not shown) [Compound 2, 1′,1′′-dibutyl methyl hydroxycitrate] | > 300 | 560 |  | > 100 | 5.5 | 
O=c1c(-c2ccc(O)cc2)coc2cc(O)cc(O)c12 [genistein] |  |  |  |  |  | ~20
